Assay results reported in paper PMC10584170, “Machine learning-based phenotypic imaging to characterise the targetable biology of Plasmodium falciparum male gametocytes for the development of transmission-blocking antimalarials” (PLOS Pathogens, 2023).
Read-outs that look alike come from different tables or passages of the source.

What was measured:
[1] = tested on: P. falciparum female gametocytes; test: P. falciparum Dual Gamete Formation Assay (PfDGFA), female readout (Pfs25-positive female gametes); type: cell-based, Plasmodium falciparum NF54
In short: (§1)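 Male and female gamete formation were quantified by microscopy image analysis following 24 h incubation of mature NF54 gametocytes with compound and activation at 28°C with xanthurenic acid.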

[2] = tested on: P. falciparum male gametocytes; test: P. falciparum Dual Gamete Formation Assay (PfDGFA), male readout (exflagellation); type: cell-based, Plasmodium falciparum NF54; conditions: for Activity: hit = >50% inhibition in male or female readout in at least 3 replicates, 0 = no class assigned
In short: as §1

[3] = 2µM, 24h preincubation with gametocytes prior to induction of gametogenesis, average of replicates
[4] = 2µM, 24h preincubation with gametocytes prior to induction of gametogenesis, replicate R1
[5] = 2µM, 24h preincubation with gametocytes prior to induction of gametogenesis, replicate R3
[6] = 2µM, 24h preincubation with gametocytes prior to induction of gametogenesis, replicate R4
[7] = 2µM, 24h preincubation, hits selected on >50% inhibition in the female readout across replicates
[8] = 2µM, 24h preincubation, hits selected on >50% inhibition in the male readout across replicates
[9] = PfDGFA at 2µM, 24h preincubation
[10] = 2µM, 24h preincubation, number of replicates with >50% inhibition in the female readout
[11] = 2µM, 24h preincubation, number of replicates with >50% inhibition in the male readout
[12] = PfDGFA at 2µM, 24h preincubation with gametocytes, average of replicates
[13] = PfDGFA at 2µM, 24h preincubation with gametocytes, replicate R1
[14] = PfDGFA at 2µM, 24h preincubation with gametocytes, replicate R3
[15] = PfDGFA at 2µM, 24h preincubation with gametocytes, replicate R4
[16] = number of replicates with >50% inhibition in the female readout, 2µM
[17] = number of replicates with >50% inhibition in the male readout, 2µM
[18] = PfDGFA at 2µM, 24h preincubation with gametocytes prior to induction of gametogenesis, replicate R1
[19] = PfDGFA at 2µM, 24h preincubation with gametocytes prior to induction of gametogenesis, replicate R3
[20] = PfDGFA at 2µM, 24h preincubation with gametocytes prior to induction of gametogenesis, replicate R4
[21] = PfDGFA at 2µM, 24h preincubation, average of replicates

SMILES | Average inhibition female (%) [1, 3] | % inhibition female (individual replicates) R1 [1, 4] | % inhibition female (individual replicates) R3 [1, 5] | % inhibition female (individual replicates) R4 [1, 6] | Average inhibition male (%) [2, 3] | % inhibition male (individual replicates) R1 [2, 4] | % inhibition male (individual replicates) R3 [2, 5] | % inhibition male (individual replicates) R4 [2, 6] | HitlevelF [1, 10] | HitlevelM [2, 11] | also measured
O=C(O)C(F)(F)F.c1cc(-c2ccc(CN3CCCCC3)cc2)cc(-c2nc3ccccc3[nH]2)c1 [TCMDC-133917] | 7.0% | 8.8% | -3.2% | 28.3% | 9.6% | 7.6% | 11.1% | 9.5% | – | – | HitlevelF [1, 7]: 0; HitlevelM [2, 8]: 0; Activity [2, 9]: 0
Cc1cccc2nc(-c3ccc(-c4cccc(CN5CCC(CCN6CCCCC6)CC5)c4)s3)[nH]c12.O=C(O)C(F)(F)F [TCMDC-133923] | 32.1% | 30.9% | 27.4% | 27.6% | 52.7% | 48.5% | 59.9% | 89.6% | 0 | 2 | –
Cc1cccc2nc(-c3ccc(-c4ccc(CN5CCC(CCN6CCCCC6)CC5)cc4)cc3)[nH]c12.O=C(O)C(F)(F)F [TCMDC-133929] | – | – | – | – | – | – | – | – | – | – | Average inhibition female (%) [1, 12]: 48.2%; % inhibition female (individual replicates) R1 [1, 13]: 36.0%; % inhibition female (individual replicates) R3 [1, 14]: 37.3%; % inhibition female (individual replicates) R4 [1, 15]: 59.9%; HitlevelF [1, 16]: 2; Average inhibition male (%) [2, 12]: 89.3%; % inhibition male (individual replicates) R1 [2, 13]: 91.7%; % inhibition male (individual replicates) R3 [2, 14]: 68.3%; % inhibition male (individual replicates) R4 [2, 15]: 101.6%; HitlevelM [2, 17]: 4
FC(F)(F)c1ccc2[nH]c(-c3ccc(-c4cccc(CN5CCC(CCN6CCCCC6)CC5)c4)cc3)nc2c1.O=C(O)C(F)(F)F [TCMDC-133941] | – | – | – | – | – | – | – | – | – | – | Average inhibition female (%) [1, 12]: 50.7%; % inhibition female (individual replicates) R1 [1, 13]: 37.2%; % inhibition female (individual replicates) R3 [1, 14]: 33.9%; % inhibition female (individual replicates) R4 [1, 15]: 67.8%; HitlevelF [1, 16]: 2; Average inhibition male (%) [2, 12]: 80.4%; % inhibition male (individual replicates) R1 [2, 13]: 88.3%; % inhibition male (individual replicates) R3 [2, 14]: 55.8%; % inhibition male (individual replicates) R4 [2, 15]: 84.9%; HitlevelM [2, 17]: 4
O=C(O)C(F)(F)F.Oc1ccc(CCNc2nc(NCCCOc3cc(CN4CCCCC4)ccc3F)nc(N3CCNCC3)n2)cc1 [TCMDC-134044] | 16.2% | 9.4% | -11.0% | 47.6% | 22.7% | 35.5% | -22.2% | 28.2% | – | – | HitlevelF [1, 7]: 0; HitlevelM [2, 8]: 0; Activity [2, 9]: 0
Cc1c(Cl)cccc1S(=O)(=O)Nc1ccc(CCN2CCC(N)CC2)cc1.Cl [TCMDC-134083] | 33.7% | 28.3% | 44.7% | 16.4% | 39.0% | 41.2% | 34.9% | 36.9% | 0 | 0 | –
Cl.NC1CCN(CCc2ccc(NS(=O)(=O)c3cccc4ccccc34)cc2)CC1 [TCMDC-134084] | 19.4% | 15.4% | 22.2% | 21.1% | 20.4% | 10.3% | – | 7.9% | 0 | 0 | –
Cl.NC1CCN(CCc2ccc(NS(=O)(=O)c3ccc(-c4ccccc4)cc3)cc2)CC1 [TCMDC-134085] | 47.2% | 28.9% | 50.6% | 70.5% | 44.1% | 43.6% | 36.7% | 44.2% | 2 | 1 | –
COc1ccc(-c2cnc(NCc3ccccc3)nc2)cc1CNC1CCN(C)CC1.O=C(O)C(F)(F)F [TCMDC-134121] | 23.3% | 22.9% | 24.0% | 18.0% | 49.5% | 40.8% | – | 53.6% | 0 | 2 | –
CS(=O)(=O)Cc1ccc(Nc2ncc(Cl)c(Nc3cccnc3C(N)=O)n2)cc1.Cl [TCMDC-134165] | – | – | – | – | – | – | – | – | – | – | Selectivity ratio F ([1]; HepG2 Tox50 versus female IC50): 10.00; inhibition at 2 µM ([1]; Plasmodium falciparum, 2µM, 24h preincubation with gametocytes, average of replicates, read-out: Average inhibition female (%)): -4.3%; inhibition at 2 µM ([1]; Plasmodium falciparum, 2µM, 24h preincubation with gametocytes, replicate R1, read-out: % inhibition female (individual replicates) R1): -8.1%; inhibition at 2 µM ([1]; Plasmodium falciparum, 2µM, 24h preincubation with gametocytes, replicate R2, read-out: % inhibition female (individual replicates) R2): -1.5%; inhibition at 2 µM ([1]; Plasmodium falciparum, 2µM, 24h preincubation with gametocytes, replicate R3, read-out: % inhibition female (individual replicates) R3): -18.7%; inhibition at 2 µM ([1]; Plasmodium falciparum, 2µM, 24h preincubation with gametocytes, replicate R4, read-out: % inhibition female (individual replicates) R4): 10.9%; IC50 ([1]; Plasmodium falciparum, PfDGFA, 24 h incubation with gametocytes before induction, female gamete readout, read-out: Female IC50): > 10 µM; Selectivity Ratio M ([2]; HepG2 Tox50 versus male IC50): 16.00; inhibition at 2 µM ([2]; Plasmodium falciparum, 2µM, 24h preincubation with gametocytes, average of replicates, read-out: Average inhibition male (%)): 92.8%; inhibition at 2 µM ([2]; Plasmodium falciparum, 2µM, 24h preincubation with gametocytes, replicate R1, read-out: % inhibition male (individual replicates) R1): 89.8%; inhibition at 2 µM ([2]; Plasmodium falciparum, 2µM, 24h preincubation with gametocytes, replicate R2, read-out: % inhibition male (individual replicates) R2): 95.7%; inhibition at 2 µM ([2]; Plasmodium falciparum, 2µM, 24h preincubation with gametocytes, replicate R3, read-out: % inhibition male (individual replicates) R3): 93.3%; inhibition at 2 µM ([2]; Plasmodium falciparum, 2µM, 24h preincubation with gametocytes, replicate R4, read-out: % inhibition male (individual replicates) R4): 92.2%; IC50 ([2]; Plasmodium falciparum, PfDGFA, 24 h incubation with gametocytes before induction, exflagellation readout, read-out: Male IC50): 6.25 µM
CS(=O)(=O)Cc1cccc(Nc2ncc(Cl)c(Nc3cccnc3C(N)=O)n2)c1.Cl [TCMDC-134166] | – | – | – | – | – | – | – | – | – | – | % inhibition female (individual replicates) R1 [1, 18]: 12.6%; % inhibition female (individual replicates) R3 [1, 19]: -16.8%; % inhibition female (individual replicates) R4 [1, 20]: 3.4%; Average inhibition female (%) [1, 21]: 1.1%; % inhibition male (individual replicates) R1 [2, 18]: 26.3%; % inhibition male (individual replicates) R3 [2, 19]: 45.1%; % inhibition male (individual replicates) R4 [2, 20]: 42.9%; Average inhibition male (%) [2, 21]: 37.5%
CC[C@H](C)CNC(=O)c1ccnc(-c2ccc(CN3CCC(N4CCCC4)CC3)cc2)c1.O=C(O)C(F)(F)F [TCMDC-134250] | 14.3% | 14.5% | 6.5% | 6.6% | -12.4% | -12.1% | -7.9% | -29.8% | – | – | HitlevelF [1, 7]: 0; HitlevelM [2, 8]: 0; Activity [2, 9]: 0
CC1CCCC(C)N1C[C@@H](O)CNS(=O)(=O)c1cccc(C(F)(F)F)c1.Cl (stereo partly shown) [TCMDC-134258] | 4.2% | 10.4% | -24.4% | 21.9% | 5.6% | -0.6% | 1.0% | 12.9% | – | – | HitlevelF [1, 7]: 0; HitlevelM [2, 8]: 0; Activity [2, 9]: 0
CN(C)CCC1CCN(CCS(=O)(=O)c2cccc(Nc3ncc(-c4cccc(F)c4)cn3)c2)CC1 [TCMDC-134374] | 19.0% | 15.2% | 18.5% | 17.0% | 10.6% | 1.8% | -1.4% | 25.6% | 0 | 0 | –
COc1cccc(-c2csc(C(=O)NCC3CCN(Cc4ccc(C(C)(C)C)cc4)C3)c2)c1.O=C(O)C(F)(F)F (stereo not shown) [TCMDC-134447] | 52.6% | 33.4% | 31.5% | 78.5% | 11.1% | 23.9% | 12.3% | 2.2% | 2 | 0 | –
